Laboratory results: a melting point compilation (Tetko et al.)

melting point	SMILES
-50 °C	C#CCCCCCCC
-106 °C	FC(F)(F)CCCl
75 to 75.5 °C	Cc1cc2ccccc2cc1CC(F)(F)F
72 to 74 °C	Cc1nc(-c2cccc(N=C=O)c2)no1
120 to 124 °C	CC1(C)Nc2cccc3c(N=Nc4ccc(N=Nc5ccccc5)c5ccccc45)ccc(c23)N1
-4 °C	CCOc1ccccc1N
170 °C	Cc1ccc(C)c2c1C(=O)N(C)C2=O
-6 °C	CCNCCO
60 to 61 °C	Cn1nc(C(=O)Cl)cc1-c1ccco1
102 to 106 °C	c1ccc2c(c1)OCCOCCOCCOc1ccccc1OCCOCCOCCO2
112 °C	O=C(OCc1ccccc1)c1ccc(O)cc1
208 °C	COc1cccc2c1C(=O)c1c(O)c3c(c(O)c1C2=O)CC(O)(C(C)=O)CC3OC1CC(N)C(O)C(C)O1 (stereo unspecified)
354 °C	O=C1c2ccc(O)cc2C(=O)c2cc(O)ccc21
128 °C	BrC(Br)(Br)c1ccc2ccccc2n1
285 °C	O=C(Nc1cccc(N=Nc2cccc(NC(=O)c3ccccc3)c2)c1)c1ccccc1
178 °C	O=C(O)C=CC(=O)Nc1ccc(Cl)cc1Cl
214 °C	O=C1c2cc3ccccc3cc2-c2ccc3ccccc3c21
83 °C	OCC(CO)(CCl)CCl
-58 °C	OCCC(F)(F)C(F)(F)C(F)(F)C(F)(F)F
317 °C	Oc1c2cccc1Cc1cccc(c1O)Cc1cccc(c1O)Cc1cccc(c1O)C2
-43.1 °C	CC1CCc2ccccc2C1 (stereo unspecified)
128 to 130 °C	O=C1CCCN1c1ccc([N+](=O)[O-])cc1

melting point	SMILES
78 °C	CC(=O)c1cnc2ccccc2n1
-17 °C	C#CCCCCCCCC#C
65.5 to 66.5 °C	CNCc1ccc(-c2cccs2)nc1
103 °C	FC(F)(F)c1ccc2cc[nH]c2c1
< 25 °C	C=CC(C)(CCC=C(C)C)OC(=O)C(C)C (stereo unspecified)
107 to 110 °C	COc1ccc(C=CC#N)c(Cl)c1OC
50 °C	Cc1ccc(C)n1CC1CCNCC1
47 °C	ClCCc1ccc(CCCl)cc1
154 to 155 °C	CCOC(=O)Cc1cc(C(=NNc2ccccc2)C(=O)OCC)c([N+](=O)[O-])cc1[N+](=O)[O-]
180 °C	O=C(O)c1ccnc(N2CCOCC2)c1
177 to 179 °C	S=c1[nH]ccn1-c1ccccc1
83 °C	Cc1ccc(S(=O)(=O)N(Cl)Cl)cc1
85 to 87 °C	O=S(=O)(Cl)c1ccc(-c2ccccc2)s1
110 °C	Cc1c(/C=C/c2ccc(Cl)cc2Cl)c2ccccc2n1S(=O)(=O)c1ccccc1
48 to 55 °C	C=Cc1ccc(OCc2ccccc2)c(OC)c1
57 °C	Cc1ccc(Cl)c(CO)c1F
4.5 °C	CO[Si](OC)(OC)OC
25 °C	O=C1CCc2ccccc2O1
74.5 °C	COC(=O)C1(S(=O)(=O)c2ccccc2)CC1
59 °C	OCc1ccccc1CN1CCOCC1
112 to 113 °C	Cc1nc(-c2ccc(C(=O)Cl)cc2)no1
150 to 156 °C	COc1ccc(-c2cc(C(F)(F)F)[nH]n2)cc1OC

melting point	SMILES
85 °C	COc1c(C(C)C)oc2cc3oc(=O)ccc3cc12
108 to 112 °C	O=C(O)c1cccc(Oc2ccccn2)c1
122 to 123 °C	Cc1ccc(C(=O)C=Cc2ccc(-c3ccccc3)o2)o1
26 °C	Cc1ccc(N)c(Br)c1
101 to 103 °C	Cc1cc(C(=O)N2CCN(c3ccccc3)CC2)no1
180 °C	O=c1[nH]cc(Cl)cc1Cl
53 to 59 °C	BrCc1ccccc1COc1ccccc1
135 °C	Cc1cc(N)ccc1[N+](=O)[O-]
33 to 34 °C	CC(=O)c1cccc(N=C=O)c1
105 to 106 °C	O=S(=O)(Cl)c1ccc(-c2ccc(Cl)c(Cl)c2)cc1
333 °C	FC(F)(F)c1nn(CN2CCN(Cn3nc(C(F)(F)F)n(N=Cc4ccccc4)c3=S)CC2)c(=S)n1N=Cc1ccccc1
240 to 244 °C	O=C(O)c1ccc(-c2cccs2)cc1
78 to 80 °C	COC(=O)c1ccc(CN2CCN(C(=O)OC(C)(C)C)CC2)cc1
103 °C	CNC(N)=O
-69.1 °C	CCCCOCCOCCCC
152 °C	CCc1ccc2cc3ccccc3cc2c1
120 °C	O=C(NCc1ccccc1)c1cccnc1Cl
176 °C	CC(C)(C)N(NC(=O)c1ccccc1)C(=O)c1cccc(F)c1
108 °C	CS[C@H]1C(=O)[C@@H]2CC[C@]3(C)[C@@H](OC(C)(C)C)CC[C@]13[C@H]2Cl
56.8 °C	CC=CC=CC=CC=O
151 to 153 °C	COc1ccccc1NC(=S)NN
157 to 158 °C	Nc1ccc(Cl)cc1C(=O)NCc1cccs1

melting point	SMILES
191 °C	O=C(NC(Cc1ccc2ccccc2c1)C(=O)O)OCC1c2ccccc2-c2ccccc21 (stereo unspecified)
151 °C	O=c1nc2ccccc2nc(C(F)(F)F)c1NNc1ccc2ccccc2c1
86 to 91 °C	BrCc1ccc(-n2cccc2)cc1
200 °C	Cc1nc2ccccc2c(C(=O)O)c1O
215 °C	N#C/C(=N\Nc1ccc(F)cc1)c1nc2ccccc2c(=O)[nH]1
36 to 43 °C	CCCCCCCCCCCCSCCCCCCCCCCCC
127 °C	Cc1cc(Br)cnc1NC(=O)C(C)(C)C
78 to 80 °C	O=C(c1ccc(Cl)c([N+](=O)[O-])c1)C1CC1
57 to 60 °C	C=CCSc1sc(C(=O)OCC)c2c1C(=O)CCC2
186 °C	O=CC=P(c1ccccc1)(c1ccccc1)c1ccccc1
104 °C	CC(CCC(C(=O)O)C(C)C)C(=O)O (stereo unspecified)
110 °C	CCN(CC)C(=O)Nc1ccc(OCC(O)CNC(C)(C)C)c(C(C)=O)c1 (stereo unspecified)
-74.3 °C	C=C(C)C1CC=C(C)CC1 (stereo unspecified)
-60 °C	CC(C)C(=O)OCCCc1ccccc1
210 °C	N#Cc1ccc(C=Cc2ccccc2C=O)c([N+](=O)[O-])c1
207 °C	O=C(O)c1ccc(O)c(F)c1F
151 to 152 °C	O=C1C2ON(c3ccccc3)C(c3ccccc3)C2C(=O)N1c1ccccc1 (stereo unspecified)
151 °C	NS(=O)(=O)c1ccc(SCCO)c([N+](=O)[O-])c1
49.5 °C	FC(F)(F)c1cccc(Br)n1
262 °C	COc1ccc(C2CC(=O)c3c(O)cc(OC4OC(COC5OC(C)C(O)C(O)C5O)C(O)C(O)C4O)cc3O2)cc1O (stereo unspecified)
-51 °C	CCCCC(=O)N(C)C
133 °C	CC(=Cc1ccccc1)CC(N)=O

melting point	SMILES
126 to 127 °C	CCc1c(C)nc(NC(=O)NS(=O)(=O)c2cccs2)nc1Cl
67 °C	Cc1cc(C)c(N)c([N+](=O)[O-])c1
310 °C	O=C(O)c1ccc(O)c(C(=O)O)c1
56 to 58 °C	Cc1nc(-c2cccc(CO)c2)no1
99 °C	Cn1c(-c2ccccc2)cc2ccccc21
327 °C	CC1=C(C(=O)O)N2C(=O)C(NC(=O)C(N)c3ccccc3)C2SC1 (stereo unspecified)
< 20 °C	Brc1cccc(Oc2ccccc2)c1
153 °C	CC(C)(C)C1=CC(=O)C(C(C)(C)C)=CC1=O
95 to 101 °C	COc1ccc(Oc2ncccc2[N+](=O)[O-])cc1
198 °C	CNc1cc(=O)oc2ccccc12
200 to 201 °C	CC(/C=C(\C)c1ccc(-c2ccccc2)cc1)=NNc1ccc([N+](=O)[O-])cc1[N+](=O)[O-]
36 to 39 °C	CCC(C)C(N)CO (stereo unspecified)
166 °C	O=c1c2ccccc2cc2ccccn12
177 °C	Cc1ccncc1C(=O)NN
193 to 195 °C	CC1(C)C(=S)NC(c2ccccc2)N1O (stereo unspecified)
198 °C	NC(=O)n1c(C2CCCCC2)nn(-c2ccccc2)c1=O
127 to 129 °C	CCOC(=O)C1CN(Cc2ccco2)C(=O)C1=O (stereo unspecified)
162 °C	CC(C)NCC(O)COc1cccc2ccccc12 (stereo unspecified)
300 °C	NC(CCc1ccccc1)C(=O)O (single isomer, unassigned; (-))

SMILES	melting point
C=CC1CN2CCC1CC2C(O)c1ccnc2ccc(O)cc12 (stereo unspecified)	202 °C
CC(=O)OC1CCC2(C)C(CCC3C4CCC(=O)C4(C)CCC32)C1 (stereo unspecified)	138 °C
CC(C)NC(=O)N1CC(=O)N(c2cc(Cl)cc(Cl)c2)C1=O	136 °C
Oc1ccc2c3c1OC1C(O)C=CC4C(C2)NCCC341 (stereo unspecified)	273 °C
Fc1ccccc1C1=NCC(=S)N(CC(F)(F)F)c2ccc(Cl)cc21	138 °C
Cc1cc(C)c(N)cc1C	68 °C
Clc1cccc2c1Oc1ccccc1O2	104 °C
Brc1ccc2c(c1)Oc1ccccc1O2	90 °C
CC12CCC3C(CCC4CC5(CCC43C)OCCO5)C1CCC2O (stereo unspecified)	212 °C
FC(Cl)C(F)(F)C(F)(F)Cl (stereo unspecified)	-97 °C
COC1(OC)CC[C@]2(C)[C@H]3CC[C@]4(C)C(=O)CC[C@@]4(O)[C@@H]3CC[C@@]2(C)C1	175 to 176 °C
CCC(=O)OC1CCC2C3CCC4CC(=O)C(C)CC4(C)C3CCC12C (stereo unspecified)	128 °C
CCOC1C(=O)NC2=C(C1=O)C(c1ccc(Br)cc1)c1c(c3ccccc3oc1=O)O2 (stereo unspecified)	196 °C
Nc1cc2ccccc2cc1O	235 °C
Cc1cccc2cc3ccccc3cc12	85.5 °C
CC=CC(=O)OC1CC2OC3C=C(C)C(=O)CC3(C)C1(C)C21CO1 (stereo unspecified)	118 °C
O=C(CCl)Nc1ccc(Br)cc1	136 to 137 °C
Cc1csc(C(=O)Cl)c1Cl	57 to 58 °C
CC1=C2C3OC(=O)C(C)C3CCC2(C)C=CC1=O (stereo unspecified)	175 °C
